Test results from article PMC8395335, “Serotonergic–Muscarinic Interaction within the Prefrontal Cortex as a Novel Target to Reverse Schizophrenia-Related Cognitive Symptoms” (International Journal of Molecular Sciences, 2021).
Where two headings read alike, the source gives them in different places.

What was measured:
[1] = Pharmacokinetic analysis of drug-drug interactions (plasma, FC concentration, FC penetration); type: in vivo, mice; settings: for Kp at 30 min / concentration at 30 min: Albino Swiss, mouse, intraperitoneal; for Kp at 30 min: frontal cortex/plasma
Method: The experiment was performed using the methods described by Bridges et al. and in our previous studies.
The pharmacokinetic analysis was performed in the blood and prefrontal cortex. […] Plasma and FC samples were stored at −80 °C until analysis.
The investigated compounds were administered alone at the top dose (F15599—0.1 mg/kg, VU0357017—5 mg/kg, VU0152100—1 mg/kg, and VU0238429—5 mg/kg) and in combinations of muscarinic ligands at subeffective doses with F15599 at subeffective dose (F15599 + VU0357017 0.05 and 0.15 mg/kg, F15599 + VU0152100 0.05 and 0.05 mg/kg, F15599 + VU0238429 0.05 and 1 mg/kg). The FC and blood were collected on the eighth day, 30 min after administration. All mice were parallelly treated with MK-801 (0.3 mg/kg) for seven consecutive days.
On the day of analysis, frozen whole mouse brain tissues were weighed and homogenized in 1:2 (w/v) volumes of ice-cold acetonitrile containing 0.1% FA and the internal standard mix. Samples were homogenized using a Metal Bead Lysing Matrix, vortexed for 1 min, shaken for 20 min at 4 °C on Thermomixer C, and centrifuged at 14,000× g rpm for 20 min at 4 °C. Finally, 50 µL of supernatant were diluted with 0.1% FA in water (1:1, v/v) and analyzed using HPLC/MS/MS.
The sample extraction of plasma (20 μL) was performed after spiking with the internal standard mix using the protein precipitation method and three volumes of ice-cold acetonitrile containing 0.1% formic acid. The extract was vortexed, incubated on ice for 20 min and centrifuged at 14,000× g rpm for 20 min at 4 °C. The supernatant was diluted with 0.1% FA in water (1:1, v/v) and analyzed by means of HPLC/MS/MS using a QTRAP 4500 (AB Sciex) mass spectrometer in positive ion mode in Multiple Reaction Monitoring (MRM screening) coupled with UHPLC (NEXERA XR, Shimadzu). Chromatographic separation was achieved on a Synergi 4 µm Fusion-RP 80 A 50 × 2 mm (Phenomenex) column at a flow rate of 0.2 mL/min. The gradient program was as follows: 20% B (0.3 min), 20–100% B (1.7 min), 100% B (3 min), 100–20% B (0.1 min), 20% B (2 min), solvent A (95:5:0.1% formic acid in water:methanol) and solvent B (methanol containing 0.1% formic acid). The column temperature was set to 40 °C. Analyst software was used to control the instrument and collect data. The ion transfer tube temperature was 300 °C. The spray voltage, collision energy, declastering potential, and gas parameters were optimized to achieve the maximal response using the test compounds. Selected reaction monitoring was carried out using the transition parameters. Calibration curves were constructed, and a linear response was obtained in the range of 0.25–500 ng/mL (VU357017, VU0152100, and F15599) and 1.25–2500 ng/mL (VU0238429) by spiking known amounts of each compound in blank brain homogenates and plasma. For VU0357017 and F15599 IS VU0152100 was used as internal standard. Sample concentration of internal standard was 100 ng/mL for IS VU0238429 and 50 ng/mL for IS VU0152100.
Brain penetration was calculated as FC/plasma ratio × 100%.

MK-801-treated mice = test: Novel object recognition (NOR) test, MK-801-induced deficits; type: in vivo
Method: Drugs were administered on two different schedules: (1) acute administration of compounds 45 min (WAY100635—5-HT1A antagonist) or 30 min (VU0357017, VU152100, VU0238429, and F15599) before MK-801 (also administered once 30 min before the test in Y-maze or T1 in NOR test); and (2) prolonged administration (once per day for 7 consecutive days) of the compounds and MK-801 with the last administration 24 h before the test (NOR test) or at the day of the test (Y-maze). […] Schedules of administration are presented graphically in Figure 2. The subeffective doses of the compounds for acute administration in the NOR test were chosen based on our previous research (see: [22, 23]) while dose-dependent studies of the activity of the compounds in reversing disruptions in the Y-maze or after prolonged administration along with MK-801 were performed within this study. Different vehicles were used throughout the study: (1) 0.9% NaCl and (2) 10% Tween 80. Vehicles were administered to all animals (e.g., control mice and MK-801-treated mice) on the same schedule as drugs were administered to the appropriate drug-treated groups of mice. Neither solvent exerted effects on animal behavior.
Male Albino Swiss mice (Charles River, Sulzfeld, Germany) weighing 20–25 g at the beginning of the experiments were used in the studies. The animals were housed in a room with a 12:12 h light-dark cycle at a temperature of 22 ± 1 °C with food and water available ad libitum. The experimental groups consisted of 8–10 animals. All drugs were administered intraperitoneally (i.p.) at a volume of 10 mL/kg. The behavioral experiments were performed by an observer who was blinded to the treatment. The procedures were conducted in accordance with the European Communities Council Directive of 22 September 2010 (2010/63/EU) and Polish legislation acts concerning animal experimentation and were approved by the II Local Ethics Committee by the Maj Institute of Pharmacology, Polish Academy of Sciences in Krakow (15/2020, 240/2020).
In acute experiments, the tested compounds (alone or in combination) were administered 30 min before MK-801 (0.3 mg/kg), which was administered 30 min before the test or training trial (T1) in the NOR test. In chronic experiments, the tested compounds (alone or in combination) and MK-801 were administered for seven days. Behavioral tests were performed on the eighth day.
The NOR test was performed as described previously. Briefly, the habituation, training and test trial were carried out in a dark room in a black, plastic rectangular arena illuminated with a 355 lux bulb. During the habituation trial, the animals were allowed to explore the arena in the absence of objects (10 min/day for 2 days). The next day, the training (T1) and test (T2) trials were performed. Throughout T1, mice were allowed to freely explore two identical objects (5 min), one of which was subsequently replaced by a novel object in T2 (1 h later, 5 min of exploration). Time spent exploring (i.e., sniffing or touching) the familiar (Tfamiliar) or novel object (Tnovel) was measured by a trained observer, and then the recognition index was calculated for each mouse [(Tnovel − Tfamiliar)/(Tfamiliar + Tnovel)] × 100.

Kp at 30 min ([1]; acute, combination F15599 0.05 mg/kg + VU0357017 1 mg/kg, read-out: PFC Penetration): 0.31
Kp at 30 min ([1]; acute, top doses alone (VU0357017 5, VU0152100 1, VU0238429 5, F15599 0.1 mg/kg), 30 min after administration, read-out: PFC Penetration (FC/plasma ratio x 100%)): 0.67
Kp at 30 min ([1]; chronic (7 days with MK-801), combination F15599 0.05 mg/kg + VU0357017 0.15 mg/kg, read-out: PFC Penetration): 0.46
Kp at 30 min ([1]; chronic (7 days with MK-801), top doses alone (VU0357017 5, VU0152100 1, VU0238429 5, F15599 0.1 mg/kg), read-out: PFC Penetration (FC/plasma ratio x 100%)): 0.36
concentration at 30 min ([1]; plasma, acute, combination F15599 0.05 mg/kg + VU0357017 1 mg/kg, read-out: Plasma): 0.00719 ± 0.00024 µg/mL
concentration at 30 min ([1]; plasma, acute, top doses alone (VU0357017 5, VU0152100 1, VU0238429 5, F15599 0.1 mg/kg), 30 min after administration, read-out: Plasma): 0.107 ± 0.00765 µg/mL
concentration at 30 min ([1]; plasma, chronic (7 days with MK-801), combination F15599 0.05 mg/kg + VU0357017 0.15 mg/kg, read-out: Plasma): 0.00513 ± 0.00038 µg/mL
concentration at 30 min ([1]; plasma, chronic (7 days with MK-801), top doses alone (VU0357017 5, VU0152100 1, VU0238429 5, F15599 0.1 mg/kg), read-out: Plasma): 0.138 ± 0.0149 µg/mL
concentration at 30 min ([1]; prefrontal cortex (FC), acute, combination F15599 0.05 mg/kg + VU0357017 1 mg/kg, read-out: PFC): 0.00225 ± 0.00056 µg/mL
concentration at 30 min ([1]; prefrontal cortex (FC), acute, top doses alone (VU0357017 5, VU0152100 1, VU0238429 5, F15599 0.1 mg/kg), 30 min after administration, read-out: PFC): 0.0717 ± 0.00469 µg/mL
concentration at 30 min ([1]; prefrontal cortex (FC), chronic (7 days with MK-801), combination F15599 0.05 mg/kg + VU0357017 0.15 mg/kg, read-out: PFC): 0.00234 ± 0.000255 µg/mL
concentration at 30 min ([1]; prefrontal cortex (FC), chronic (7 days with MK-801), top doses alone (VU0357017 5, VU0152100 1, VU0238429 5, F15599 0.1 mg/kg), read-out: PFC): 0.0503 ± 0.00462 µg/mL
PFC Penetration (FC/plasma ratio x 100%) ([1]; acute, top doses alone (VU0357017 5, VU0152100 1, VU0238429 5, F15599 0.1 mg/kg), 30 min after administration): 67%
PFC Penetration (FC/plasma ratio x 100%) ([1]; chronic (7 days with MK-801), top doses alone (VU0357017 5, VU0152100 1, VU0238429 5, F15599 0.1 mg/kg)): 36%
Decrease of FC penetration after acute concomitant administration with F15599 ([1]; subeffective doses, compared to top dose alone): more than 50%
Decrease of FC penetration after prolonged administration compared to acute ([1]; top doses alone, animals treated with MK-801): ca. 50%
SMILES: CCOC(=O)N1CCC(NCCNC(=O)c2ccccc2C)CC1 [VU0357017]
Reversal of MK-801-induced deficits in the NOR test (recognition index) (MK-801-treated mice; 7 days with MK-801, 0.15 mg/kg): ineffective
Reversal of MK-801-induced disruptions in NOR test by combined administration (MK-801-treated mice; 7 days, F15599 0.05 mg/kg with VU0357017 0.15 mg/kg (subeffective doses)): reversed
Effect of top dose on MK-801-induced deficits in the NOR test (MK-801-treated mice; acute, 5 mg/kg i.p., alone): pro-cognitive effect
Effect of combined administration on MK-801-induced memory deficits in the NOR test (MK-801-treated mice; acute, subeffective doses, F15599 with VU0357017): no effect
